US9278962B2 (Cytokinetics, Inc., priority 2011, dated 2016)

Tested on: rabbit skeletal myofibrils (approximately 90% fast fibers)
Assay: Activation of fast skeletal myofibrils (PUMA coupled-enzyme ATPase assay, AC1.4)
Type: biochemical
Details: concentration at which the compound increased enzymatic activity by 40%, calcium at pCa25
Experimental: Rabbit skeletal myofibrils were prepared based upon the method of Herrmann et al. (Biochem. 32(28):7255-7263(1993). Myofibrils were prepared from rabbit psoas muscle purchased from Pel-Freez Biologicals (Arkansas) within 2 days of ordering, stored on ice. Minced muscle was homogenized in 10 volumes of ice-cold “standard” buffer (50 mM Tris, pH 7.4, 0.1 M potassium acetate, 5 mM KCl, 2 mM DTT, 0.2 mM PMSF, 10 μM leupeptin, 5 μM pepstatin, and 0.5 mM sodium azide) containing 5 mM EDTA and 0.5% Triton X-100 using an Omni-Macro homogenizer. Myofibrils were recovered by low speed centrifugation (3000 rpm for 10 minutes) and washed 2 times in the Triton X-100 containing buffer to ensure removal of cellular membrane. Following the Triton washes, myofibrils were washed 3 times in “standard” buffer containing 2 mM magnesium acetate. A final wash in assay buffer (12 mM PIPES, pH 6.8, 60 mM KCl, 1 mM DTT) was performed and brought to 10% sucrose for flash freezing in liquid nitrogen and storage at −80° C.
Fast fiber activators were identified by measuring the enzymatic activity of muscle myofibril preparations using the proprietary PUMA™ (see, e.g., U.S. Pat. Nos. 6,410,254, 6,743,599, 7,202,051, and 7,378,254) assay system. Myofibril preparations consisted of rabbit skeletal muscle (approximately 90% fast fibers) that had been mechanically homogenized and washed with a detergent (triton X-100) to remove cellular membranes. This preparation retained all of the sarcomeric components in a native conformation and the enzymatic activity was still regulated by calcium. Compounds were tested using a myofibril suspension and a level of calcium sufficient to increase enzymatic activity of the myofibrils to 25% of their maximal rate (termed pCa25). Enzymatic activity was tracked via a pyruvate kinase and lactate dehydrogenase-coupled enzyme system. This assay regenerates myosin-produced ADP into ATP by oxidizing NADH, producing an absorbance change at 340 nm. The buffering system was 12 mM Pipes, 2 mM MgCl2, 1 mM DTT at pH 6.8 (PM12 buffer).
Using procedures similar to those described herein, utilizing reagents and intermediates commercially available (e.g., Sigma-Aldrich) or readily synthesized by one of skill in the art, the compounds in Table 2, Table 3, Table 4 and Table 5 were synthesized, characterized and tested. AC1.4 values were determined according to the procedure described in Example 6, and the reported median AC1.4 values are as follows: A=<1 uM; B=1-10 uM; C=10-20 uM; D=>20 uM.

For `NC(=O)c1cccc(-c2nsc(NCC3(c4ccc(F)cc4)CCNCC3)n2)c1` [3-[5-({[4-(4-fluorophenyl)-4-piperidyl]methyl}amino)-1,2,4-thiadiazol-3-yl]benzamide], the “Mean AC1.4” value (Table 2) was “D (D=>20 uM)”.

With `CN(C)C(=O)c1ccc2nc(NCC(C)(C)c3ccc(F)cc3)sc2c1` [2-(2-(4-fluorophenyl)-2-methylpropylamino)-N,N-dimethylbenzo[d]thiazole-6-carboxamide] the “Mean AC1.4” value (Table 4) was “B (B=1-10 uM)”.

With `Cc1cc(C#N)sc1-c1nnc(NC[C@]2(c3ncccc3F)C[C@H](F)C2)s1` [5-(5-((3-fluoro-1-(3-fluoropyridin-2-yl)cyclobutyl)methylamino)-1,3,4-thiadiazol-2-yl)-4-methylthiophene-2-carbonitrile] the “Mean AC1.4” value (Table 3) was “B (B=1-10 uM)”.

`CC(C)(CNc1nc(-c2cccc(C(N)=O)c2)ns1)c1ccc(F)cn1` [3-(5-{[2-(5-fluoro(2-pyridyl))-2-methylpropyl]amino}-1,2,4-thiadiazol-3-yl)benzamide] was tested, and the “Mean AC1.4” value (Table 2) was “B (B=1-10 uM)”.

In the case of `CCc1ccc(F)c(-c2nnc(NC[C@]3(c4ncccc4F)C[C@H](F)C3)s2)c1` [5-(5-ethyl-2-fluorophenyl)-N-((3-fluoro-1-(3-fluoropyridin-2-yl)cyclobutyl)methyl)-1,3,4-thiadiazol-2-amine], the “Mean AC1.4” value (Table 3) is reported as “A (A=<1 uM)”.

With `NC(=O)c1cccc(-c2nnc(NCC3(c4ncccc4F)CCC3)s2)c1` [3-(5-((1-(3-fluoropyridin-2-yl)cyclobutyl)methylamino)-1,3,4-thiadiazol-2-yl)benzamide] the “Mean AC1.4” value (Table 3) was “A (A=<1 uM)”.

`CC(C)(CNc1nc(CCC(=O)O)ns1)c1ccc(F)cc1` [3-(5-{[2-(4-fluorophenyl)-2-methylpropyl]amino}-1,2,4-thiadiazol-3-yl)propanoic acid] was tested, and the “Mean AC1.4” value (Table 2) was “D (D=>20 uM)”.

In the case of `Fc1cccnc1C1(CNc2nsc(-c3ccccc3)n2)CCC1` [N-((1-(3-fluoropyridin-2-yl)cyclobutyl)methyl)-5-phenyl-1,2,4-thiadiazol-3-amine], the “Mean AC1.4” value (Table 2) is reported as “D (D=>20 uM)”.

`Fc1cccnc1C1(CNc2ncc(-c3ccccc3)s2)CCC1` [N-((1-(3-fluoropyridin-2-yl)cyclobutyl)methyl)-5-phenylthiazol-2-amine] was tested, and the “Mean AC1.4” value (Table 5) was “A (A=<1 uM)”.

`Cn1nc(NC2(c3ncccc3F)CCC2)nc1-c1cc(Br)ccc1F` [5-(5-bromo-2-fluorophenyl)-N-(1-(3-fluoropyridin-2-yl)cyclobutyl)-1-methyl-1H-1,2,4-triazol-3-amine] was tested, and the “Mean AC1.4” value (Table 5) was “D (D=>20 uM)”.

For `CC(C)(CNc1nc2ccccc2s1)c1ccc(F)cc1` [N-(2-(4-fluorophenyl)-2-methylpropyl)benzo[d]thiazol-2-amine], the “Mean AC1.4” value (Table 4) was “B (B=1-10 uM)”.

In the case of `CC(C)(CNc1nnc(-c2ccc3[nH]nc(N)c3c2)s1)c1ccc(F)cc1` [5-(3-amino-1H-indazol-5-yl)-N-(2-(4-fluorophenyl)-2-methylpropyl)-1,3,4-thiadiazol-2-amine], the “Mean AC1.4” value (Table 3) is reported as “A (A=<1 uM)”.

`CC(C)(CNc1nc(-c2ccc(F)c(C(N)=O)c2)ns1)c1ccc(F)cc1` [2-fluoro-5-(5-{[2-(4-fluorophenyl)-2-methylpropyl]amino}(1,2,4-thiadiazol-3-yl))benzamide] was tested, and the “Mean AC1.4” value (Table 2) was “A (A=<1 uM)”.

For `CC(C)(CNc1nnc(-c2cc(Br)ccc2F)s1)c1ncccc1F` [5-(5-bromo-2-fluorophenyl)-N-(2-(3-fluoropyridin-2-yl)-2-methylpropyl)-1,3,4-thiadiazol-2-amine], the “Mean AC1.4” value (Table 3) was “A (A=<1 uM)”.

`COc1ccc(-c2nsc(NCC(C)(C)c3ccc(F)cc3)n2)c(Cl)c1` [[3-(2-chloro-4-methoxyphenyl)(1,2,4-thiadiazol-5-yl)][2-(4-fluorophenyl)-2-methylpropyl]amine] was tested, and the “Mean AC1.4” value (Table 2) was “B (B=1-10 uM)”.

With `Cn1c(NC(C)(C)c2ccc(F)cc2)nnc1-c1cc(C(N)=O)ccc1F` [4-fluoro-3-(5-(2-(4-fluorophenyl)propan-2-ylamino)-4-methyl-4H-1,2,4-triazol-3-yl)benzamide] the “Mean AC1.4” value (Table 5) was “D (D=>20 uM)”.

In the case of `CCOC(=O)/C=C/c1nsc(NCC(C)(C)c2ccc(F)cc2)n1` [ethyl (2E)-3-(5-{[2-(4-fluorophenyl)-2-methylpropyl]amino}(1,2,4-thiadiazol-3-yl))prop-2-enoate], the “Mean AC1.4” value (Table 2) is reported as “D (D=>20 uM)”.

In the case of `COc1cccnc1C1(CNc2nc3ccc(C(N)=O)cc3s2)CCC1` [2-((1-(3-methoxypyridin-2-yl)cyclobutyl)methylamino)benzo[d] thiazole-6-carboxamide], the “Mean AC1.4” value (Table 4) is reported as “B (B=1-10 uM)”.

For `COc1cccc(Cc2nsc(NCCc3ccc(Cl)cc3)n2)c1` [[2-(4-chlorophenyl)ethyl]{3-[(3-methoxyphenyl)methyl](1,2,4-thiadiazol-5-yl)}amine], the “Mean AC1.4” value (Table 2) was “B (B=1-10 uM)”.

In the case of `NC(=O)c1cccc(-c2nsc(NCC(=O)C3CCCCN3)n2)c1` (centres unmarked) [3-{5-[(2-oxo-2-piperidylethyl)amino]-1,2,4-thiadiazol-3-yl}benzamide], the “Mean AC1.4” value (Table 2) is reported as “D (D=>20 uM)”.

`COc1cccc(Cc2nsc(NC[C@@H](C)c3ccc(F)cc3)n2)c1` [[(2S)-2-(4-fluorophenyl)propyl]{3-[(3-methoxyphenyl)methyl](1,2,4-thiadiazol-5-yl)}amine] was tested, and the “Mean AC1.4” value (Table 2) was “A (A=<1 uM)”.

In the case of `N#Cc1cccc(-c2nsc(NCCc3ccc(F)cc3)n2)c1` [3-(5-{[2-(4-fluorophenyl)ethyl]amino}-1,2,4-thiadiazol-3-yl)benzenecarbonitrile], the “Mean AC1.4” value (Table 2) is reported as “D (D=>20 uM)”.

With `Fc1cccnc1[C@]1(CNc2nnc(-c3ccon3)s2)C[C@@H](F)C1` [N-((3-fluoro-1-(3-fluoropyridin-2-yl)cyclobutyl)methyl)-5-(isoxazol-3-yl)-1,3,4-thiadiazol-2-amine] the “Mean AC1.4” value (Table 3) was “C (C=10-20 uM)”.

In the case of `C=Cc1nsc(NCC(C)(C)c2ccc(F)cc2)n1` [[2-(4-fluorophenyl)-2-methylpropyl](3-vinyl(1,2,4-thiadiazol-5-yl))amine], the “Mean AC1.4” value (Table 2) is reported as “B (B=1-10 uM)”.

With `CC(=O)NCCCc1nsc(NCC(C)(C)c2ccc(F)cc2)n1` [N-[3-(5-{[2-(4-fluorophenyl)-2-methylpropyl]amino}-1,2,4-thiadiazol-3-yl)propyl]acetamide] the “Mean AC1.4” value (Table 2) was “C (C=10-20 uM)”.

With `CC(C)(CNc1nc2ccc(Cl)cc2s1)c1ccc(F)cc1` [6-chloro-N-(2-(4-fluorophenyl)-2-methylpropyl)benzo[d]thiazol-2-amine] the “Mean AC1.4” value (Table 4) was “A (A=<1 uM)”.

With `Fc1cccnc1C1(CNc2nnc(Cc3ccccc3)s2)CCC1` [5-benzyl-N-((1-(3-fluoropyridin-2-yl)cyclobutyl)methyl)-1,3,4-thiadiazol-2-amine] the “Mean AC1.4” value (Table 3) was “D (D=>20 uM)”.

With `COc1ccc(C2(CNc3nc4ccc(Cl)cc4s3)CCC2)nc1` [6-chloro-N-((1-(5-methoxypyridin-2-yl)cyclobutyl)methyl)benzo[d] thiazol-2-amine] the “Mean AC1.4” value (Table 4) was “B (B=1-10 uM)”.

With `CC(C)(CNc1nc2cc(C#N)ccc2s1)c1ccc(F)cc1` [2-(2-(4-fluorophenyl)-2-methylpropylamino)benzo[d] thiazole-5-carbonitrile] the “Mean AC1.4” value (Table 4) was “B (B=1-10 uM)”.

`N#Cc1ccc(C#N)c(-c2nnc(NC[C@]3(c4ncccc4F)C[C@H](F)C3)s2)c1` [2-(5-((3-fluoro-1-(3-fluoropyridin-2-yl)cyclobutyl)methylamino)-1,3,4-thiadiazol-2-yl)terephthalonitrile] was tested, and the “Mean AC1.4” value (Table 3) was “B (B=1-10 uM)”.

With `COc1cccc(Cc2nsc(NCCc3ccc4c(c3)OCO4)n2)c1` [(2-(2H-benzo[d]1,3-dioxolan-5-yl)ethyl){3-[(3-methoxyphenyl)methyl](1,2,4-thiadiazol-5-yl)}amine] the “Mean AC1.4” value (Table 2) was “D (D=>20 uM)”.

With `C[C@H](CNc1nc(-c2ccc(O)nc2)ns1)c1ccc(F)cc1` [5-(5-{[(2S)-2-(4-fluorophenyl)propyl]amino}-1,2,4-thiadiazol-3-yl)pyridin-2-ol] the “Mean AC1.4” value (Table 2) was “B (B=1-10 uM)”.

For `CC(C)(Nc1nnc(-c2cc(Br)ccc2F)o1)c1ccc(F)cc1` [5-(5-bromo-2-fluorophenyl)-N-(2-(4-fluorophenyl)propan-2-yl)-1,3,4-oxadiazol-2-amine], the “Mean AC1.4” value (Table 5) was “B (B=1-10 uM)”.

With `CC(C)(CNc1nc(-c2ccccc2)ns1)c1ccc(F)cc1` [[2-(4-fluorophenyl)-2-methylpropyl](3-phenyl(1,2,4-thiadiazol-5-yl))amine] the “Mean AC1.4” value (Table 2) was “B (B=1-10 uM)”.

`CN(CC(C)(C)c1ccc(F)cc1)c1nc(Cc2cccc(O)c2)ns1` [3-[(5-{[2-(4-fluorophenyl)-2-methylpropyl]methylamino}-1,2,4-thiadiazol-3-yl)methyl]phenol] was tested, and the “Mean AC1.4” value (Table 2) was “D (D=>20 uM)”.
